Drawing on ChEMBL document CHEMBL5291721, “A preclinical secondary pharmacology resource illuminates target-adverse drug reaction associations of marketed drugs” (Nat Commun, 2023), this text covers AC50 for 14 molecules.

In general, AC50 refers to the concentration at which the activity in the assay is half-maximal. Read a low AC50 as activity at low concentration.

Test [1] concerns the target Gamma-aminobutyric acid receptor subunit alpha-1 (Rattus norvegicus, UniProt P62813).
In test [2] the target is T1, Progesterone receptor (Homo sapiens, UniProt P06401).
T1 sequence (P06401 whole entry): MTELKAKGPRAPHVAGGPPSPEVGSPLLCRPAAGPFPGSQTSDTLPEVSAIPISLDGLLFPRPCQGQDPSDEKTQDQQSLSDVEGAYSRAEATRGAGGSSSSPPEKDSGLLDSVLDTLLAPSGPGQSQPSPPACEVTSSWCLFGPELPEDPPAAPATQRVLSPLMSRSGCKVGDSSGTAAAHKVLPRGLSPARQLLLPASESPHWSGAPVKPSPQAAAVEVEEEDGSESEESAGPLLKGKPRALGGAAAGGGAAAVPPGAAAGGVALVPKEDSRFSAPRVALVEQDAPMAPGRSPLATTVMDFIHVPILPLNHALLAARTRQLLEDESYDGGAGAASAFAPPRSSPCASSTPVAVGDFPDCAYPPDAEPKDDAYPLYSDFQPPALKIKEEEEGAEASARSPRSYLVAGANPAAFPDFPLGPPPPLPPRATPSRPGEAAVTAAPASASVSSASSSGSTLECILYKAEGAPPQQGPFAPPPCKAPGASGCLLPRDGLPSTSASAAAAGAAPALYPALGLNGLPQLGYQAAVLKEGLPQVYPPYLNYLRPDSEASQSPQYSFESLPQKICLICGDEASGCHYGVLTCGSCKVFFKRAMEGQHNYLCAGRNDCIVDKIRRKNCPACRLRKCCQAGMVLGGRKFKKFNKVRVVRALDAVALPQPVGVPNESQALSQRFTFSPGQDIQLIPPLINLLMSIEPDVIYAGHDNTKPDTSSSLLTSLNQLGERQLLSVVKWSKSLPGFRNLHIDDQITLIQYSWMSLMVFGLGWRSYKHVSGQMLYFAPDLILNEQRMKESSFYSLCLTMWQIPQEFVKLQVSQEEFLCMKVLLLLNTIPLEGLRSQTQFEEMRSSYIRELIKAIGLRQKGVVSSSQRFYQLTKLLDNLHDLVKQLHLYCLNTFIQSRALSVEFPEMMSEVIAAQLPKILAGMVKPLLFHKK
The class given is functional.

Test [3] concerns the target 3',5'-cyclic-AMP phosphodiesterase 4D (Homo sapiens, UniProt Q08499). The test is classed as functional.
The target of test [4] is T2, Muscarinic acetylcholine receptor M2 (Homo sapiens, UniProt P08172).
T2 sequence (P08172 whole entry): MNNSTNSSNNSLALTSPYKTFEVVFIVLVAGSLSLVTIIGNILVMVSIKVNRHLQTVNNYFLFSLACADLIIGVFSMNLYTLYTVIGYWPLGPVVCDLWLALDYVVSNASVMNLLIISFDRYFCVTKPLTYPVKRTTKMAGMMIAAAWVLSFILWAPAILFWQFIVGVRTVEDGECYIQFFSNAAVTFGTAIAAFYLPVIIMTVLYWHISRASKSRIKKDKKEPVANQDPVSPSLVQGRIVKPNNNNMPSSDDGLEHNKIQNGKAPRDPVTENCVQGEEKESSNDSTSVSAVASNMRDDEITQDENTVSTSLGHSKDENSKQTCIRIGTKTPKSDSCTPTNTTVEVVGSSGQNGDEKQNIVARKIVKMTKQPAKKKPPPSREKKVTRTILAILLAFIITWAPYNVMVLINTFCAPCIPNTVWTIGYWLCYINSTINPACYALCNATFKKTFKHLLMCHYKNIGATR
The class given is functional, cell-based.

For test [5], the target named is Cannabinoid receptor 1 (Homo sapiens, UniProt P21554). The test is classed as functional, cell-based.
Cannabinoid receptor 1, sequence (P21554 whole entry): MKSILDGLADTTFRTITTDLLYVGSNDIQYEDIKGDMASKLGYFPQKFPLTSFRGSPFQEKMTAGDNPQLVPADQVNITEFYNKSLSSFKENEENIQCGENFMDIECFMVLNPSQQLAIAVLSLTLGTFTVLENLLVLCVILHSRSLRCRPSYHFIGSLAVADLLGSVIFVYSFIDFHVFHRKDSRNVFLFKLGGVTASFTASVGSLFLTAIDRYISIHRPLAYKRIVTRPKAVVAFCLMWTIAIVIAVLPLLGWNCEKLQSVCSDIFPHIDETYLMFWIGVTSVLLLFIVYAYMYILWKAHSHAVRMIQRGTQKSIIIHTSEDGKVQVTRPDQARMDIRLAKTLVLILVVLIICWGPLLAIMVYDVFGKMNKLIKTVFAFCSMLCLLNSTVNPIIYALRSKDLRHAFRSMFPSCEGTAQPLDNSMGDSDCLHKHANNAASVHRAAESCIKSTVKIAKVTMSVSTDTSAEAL
Test [6] has as its target Histamine H2 receptor (Homo sapiens, UniProt P25021). The class given is functional, cell-based.
Test [7] addresses T2, Muscarinic acetylcholine receptor M2. The class given is functional, cell-based. This is another data set of the same source.
Test [8] has as its target 5-hydroxytryptamine receptor 2B (Homo sapiens, UniProt P41595). The class given is functional, cell-based.
Test [9] concerns the target Sodium-dependent serotonin transporter (Homo sapiens, UniProt P31645).
Test [10] has as its target Vasopressin V2 receptor (Homo sapiens, UniProt P30518).
For test [11], the target named is Vasopressin V1a receptor (Homo sapiens, UniProt P37288).
Vasopressin V1a receptor, sequence (P37288 whole entry): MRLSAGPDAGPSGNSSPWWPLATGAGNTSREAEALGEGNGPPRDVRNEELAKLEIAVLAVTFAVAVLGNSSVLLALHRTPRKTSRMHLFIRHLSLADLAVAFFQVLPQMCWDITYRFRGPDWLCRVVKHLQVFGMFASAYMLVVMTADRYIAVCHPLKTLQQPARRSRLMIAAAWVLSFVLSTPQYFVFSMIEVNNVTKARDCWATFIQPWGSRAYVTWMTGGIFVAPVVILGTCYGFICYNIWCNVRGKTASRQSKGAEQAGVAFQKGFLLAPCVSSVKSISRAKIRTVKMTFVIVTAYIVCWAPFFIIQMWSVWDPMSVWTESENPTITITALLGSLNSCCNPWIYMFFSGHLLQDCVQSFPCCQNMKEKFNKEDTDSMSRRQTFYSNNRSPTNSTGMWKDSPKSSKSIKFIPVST
The target in test [12] is T3, Thromboxane A2 receptor (Homo sapiens, UniProt P21731).
T3 sequence (P21731 whole entry): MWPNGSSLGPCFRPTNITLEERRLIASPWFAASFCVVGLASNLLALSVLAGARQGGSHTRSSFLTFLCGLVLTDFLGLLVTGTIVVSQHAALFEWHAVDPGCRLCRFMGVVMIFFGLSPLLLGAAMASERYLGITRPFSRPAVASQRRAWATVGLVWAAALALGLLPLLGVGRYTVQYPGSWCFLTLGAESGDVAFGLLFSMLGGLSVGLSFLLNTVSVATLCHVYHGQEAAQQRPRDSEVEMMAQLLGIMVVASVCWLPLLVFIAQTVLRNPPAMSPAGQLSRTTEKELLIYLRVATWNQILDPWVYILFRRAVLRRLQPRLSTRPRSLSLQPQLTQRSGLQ
Further: assay procedure not described here.

Sodium-dependent serotonin transporter, sequence (P31645 whole entry): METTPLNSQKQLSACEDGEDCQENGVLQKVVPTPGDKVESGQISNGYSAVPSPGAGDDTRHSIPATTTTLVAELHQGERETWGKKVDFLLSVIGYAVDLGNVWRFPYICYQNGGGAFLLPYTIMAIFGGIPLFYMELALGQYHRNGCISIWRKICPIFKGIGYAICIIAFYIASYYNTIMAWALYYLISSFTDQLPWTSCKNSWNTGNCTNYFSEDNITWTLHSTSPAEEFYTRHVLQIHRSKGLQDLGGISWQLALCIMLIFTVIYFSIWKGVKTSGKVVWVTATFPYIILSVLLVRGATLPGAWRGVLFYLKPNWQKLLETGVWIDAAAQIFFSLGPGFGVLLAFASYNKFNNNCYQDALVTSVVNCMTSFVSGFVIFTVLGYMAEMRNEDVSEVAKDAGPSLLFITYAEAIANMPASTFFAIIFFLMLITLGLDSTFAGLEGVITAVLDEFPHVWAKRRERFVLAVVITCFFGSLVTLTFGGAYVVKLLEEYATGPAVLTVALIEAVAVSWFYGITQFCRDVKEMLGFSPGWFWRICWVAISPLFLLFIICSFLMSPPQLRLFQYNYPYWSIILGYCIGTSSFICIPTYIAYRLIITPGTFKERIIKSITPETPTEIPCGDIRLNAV
Histamine H2 receptor, sequence (P25021 whole entry): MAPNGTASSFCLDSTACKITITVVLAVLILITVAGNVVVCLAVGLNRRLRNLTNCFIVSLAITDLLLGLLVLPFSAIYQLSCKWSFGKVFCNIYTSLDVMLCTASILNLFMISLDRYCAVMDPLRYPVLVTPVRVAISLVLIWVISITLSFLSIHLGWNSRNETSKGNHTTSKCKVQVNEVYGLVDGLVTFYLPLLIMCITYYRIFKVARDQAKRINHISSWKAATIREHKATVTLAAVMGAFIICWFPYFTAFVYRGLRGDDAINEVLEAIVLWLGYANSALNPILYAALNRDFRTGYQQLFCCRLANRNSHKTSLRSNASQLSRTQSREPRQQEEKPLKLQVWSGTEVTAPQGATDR
5-hydroxytryptamine receptor 2B, sequence (P41595 whole entry): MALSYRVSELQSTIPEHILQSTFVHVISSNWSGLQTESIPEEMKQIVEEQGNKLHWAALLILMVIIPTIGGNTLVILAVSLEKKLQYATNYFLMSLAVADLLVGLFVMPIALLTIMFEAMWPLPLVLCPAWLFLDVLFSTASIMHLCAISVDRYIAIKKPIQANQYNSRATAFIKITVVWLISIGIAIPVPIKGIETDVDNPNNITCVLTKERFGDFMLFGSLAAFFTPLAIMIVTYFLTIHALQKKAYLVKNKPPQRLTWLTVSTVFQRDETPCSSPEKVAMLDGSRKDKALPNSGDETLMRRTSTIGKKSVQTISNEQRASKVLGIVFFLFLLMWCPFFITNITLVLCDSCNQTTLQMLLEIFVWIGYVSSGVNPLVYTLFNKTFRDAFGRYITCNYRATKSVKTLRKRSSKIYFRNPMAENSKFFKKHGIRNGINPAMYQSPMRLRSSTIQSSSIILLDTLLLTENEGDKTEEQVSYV
3',5'-cyclic-AMP phosphodiesterase 4D, sequence (Q08499 whole entry): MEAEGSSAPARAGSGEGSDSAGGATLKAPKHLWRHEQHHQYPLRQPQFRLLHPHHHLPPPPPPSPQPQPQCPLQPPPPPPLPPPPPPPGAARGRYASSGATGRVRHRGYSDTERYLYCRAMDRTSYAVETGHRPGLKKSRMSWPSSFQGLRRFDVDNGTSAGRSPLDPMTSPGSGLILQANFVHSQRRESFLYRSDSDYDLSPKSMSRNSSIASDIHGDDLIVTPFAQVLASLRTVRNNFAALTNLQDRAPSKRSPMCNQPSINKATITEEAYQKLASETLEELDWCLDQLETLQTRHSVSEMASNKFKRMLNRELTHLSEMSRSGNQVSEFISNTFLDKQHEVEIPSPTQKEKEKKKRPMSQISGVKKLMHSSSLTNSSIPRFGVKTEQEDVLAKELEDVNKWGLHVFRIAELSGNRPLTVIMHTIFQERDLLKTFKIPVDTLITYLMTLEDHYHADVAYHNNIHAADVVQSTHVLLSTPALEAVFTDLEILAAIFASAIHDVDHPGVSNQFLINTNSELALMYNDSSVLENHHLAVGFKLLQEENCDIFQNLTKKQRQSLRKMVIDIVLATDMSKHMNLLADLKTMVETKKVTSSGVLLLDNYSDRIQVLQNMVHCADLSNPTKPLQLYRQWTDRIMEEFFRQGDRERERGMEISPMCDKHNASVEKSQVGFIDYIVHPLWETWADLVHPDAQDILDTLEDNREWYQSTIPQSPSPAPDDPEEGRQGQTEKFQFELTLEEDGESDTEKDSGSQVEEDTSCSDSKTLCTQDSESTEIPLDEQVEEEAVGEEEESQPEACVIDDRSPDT
Gamma-aminobutyric acid receptor subunit alpha-1, sequence (P62813 whole entry): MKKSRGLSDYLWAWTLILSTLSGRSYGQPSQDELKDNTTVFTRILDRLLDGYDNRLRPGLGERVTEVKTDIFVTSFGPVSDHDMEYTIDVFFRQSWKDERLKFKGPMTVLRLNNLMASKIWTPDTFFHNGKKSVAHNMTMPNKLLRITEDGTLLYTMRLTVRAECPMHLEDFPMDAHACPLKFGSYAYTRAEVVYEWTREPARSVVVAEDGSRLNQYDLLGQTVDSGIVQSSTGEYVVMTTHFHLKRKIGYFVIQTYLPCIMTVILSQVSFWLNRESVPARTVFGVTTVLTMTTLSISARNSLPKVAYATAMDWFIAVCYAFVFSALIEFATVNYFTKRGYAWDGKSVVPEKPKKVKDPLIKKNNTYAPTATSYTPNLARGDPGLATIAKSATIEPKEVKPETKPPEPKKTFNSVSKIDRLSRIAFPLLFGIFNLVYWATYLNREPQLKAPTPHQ
Vasopressin V2 receptor, sequence (P30518 whole entry): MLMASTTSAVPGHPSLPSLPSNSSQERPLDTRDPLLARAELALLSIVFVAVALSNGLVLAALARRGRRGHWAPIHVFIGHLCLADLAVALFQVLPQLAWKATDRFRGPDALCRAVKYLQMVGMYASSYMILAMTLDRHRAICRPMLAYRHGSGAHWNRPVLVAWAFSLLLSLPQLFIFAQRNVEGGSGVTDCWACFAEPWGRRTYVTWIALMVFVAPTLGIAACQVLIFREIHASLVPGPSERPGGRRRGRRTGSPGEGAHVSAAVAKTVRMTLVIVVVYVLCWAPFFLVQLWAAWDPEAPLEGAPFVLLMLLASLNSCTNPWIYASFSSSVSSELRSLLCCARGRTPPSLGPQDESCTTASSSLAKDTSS

Turning to `CCCC(=O)N1CCCN(c2nc(N)c3cc(OC)c(OC)cc3n2)CC1` [BUNAZOSIN], the AC50 in [1], in [2], in [3], in test [4], in [5] and in test [6] was > 30 µM each time. Also, the half-maximal activity concentration (AC50) in [7], in test [8], in test [9], in test [10] and in test [11] was > 30 µM in each case.
For the molecule `C[N+](C)(C)CCOC(N)=O` [CARBAMOYLCHOLINE], the AC50 in test [1] is > 10 µM; in test [2] it was > 10 µM; in test [3], > 30 µM; in test [5], > 30 µM; in test [6] it was > 30 µM; in [12], > 10 µM. For the same molecule, the AC50 was > 30 µM in [8], > 10 µM in test [10] and > 10 µM in [11].
As for `CC(C)(N)Cc1ccc(Cl)cc1` [CHLORPHENTERMINE], the AC50 is > 10 µM in [1]; > 30 µM in test [3]; > 10 µM in test [4]; > 30 µM in test [5]; > 10 µM in test [6]; > 10 µM in [7]. Moreover, the AC50 in test [12] was > 30 µM; in test [8], > 10 µM; in test [9] it was 4.57 µM; in test [10] it was > 30 µM; in [11], > 30 µM.
On to `CN(C)[C@@H]1C(O)=C(C(N)=O)C(=O)[C@@]2(O)C(O)=C3C(=O)c4c(O)ccc(Cl)c4[C@@H](O)[C@H]3C[C@@H]12` [DEMECLOCYCLINE], for which the half-maximal activity concentration (AC50) is > 10 µM in test [1]; > 30 µM in [2]; > 30 µM in test [3]; > 10 µM in [4]; > 10 µM in [6]; > 10 µM in test [7]. Further, the half-maximal activity concentration (AC50) in test [12], in test [8], in [9], in test [10] and in test [11] was > 10 µM each time.
Regarding `C=C1C[C@@H]2[C@H](CC[C@]3(C)C(=O)CC[C@@H]23)[C@@]2(C)C=CC(=O)C=C12` [EXEMESTANE], the AC50 in test [1] was > 10 µM; in [3], > 30 µM; in [4] it was > 10 µM; in [5] it was > 30 µM; in test [6], > 10 µM; in [7] it was > 10 µM. Also, the half-maximal activity concentration (AC50) in test [12] was > 30 µM; in test [8], > 10 µM; in test [9], > 30 µM; in test [10], > 30 µM; in test [11], > 30 µM.
On to `CC(C(O)c1ccc(O)cc1)N1CCC(Cc2ccccc2)CC1` (centres undefined) [IFENPRODIL], for which the AC50 in test [1], in test [3], in [4], in test [5], in [6] and in test [7] was > 30 µM each time. The half-maximal activity concentration (AC50) in test [12] was > 30 µM; in [8] it was > 30 µM; in test [9], 0.28 µM; in test [10], > 30 µM; in [11], > 30 µM.
As for `CC(=O)N(CC(O)CO)c1c(I)c(C(=O)NCC(O)CO)c(I)c(C(=O)NCC(O)CO)c1I` (centres undefined) [IOHEXOL], the AC50 was > 10 µM in test [1]; > 30 µM in test [3]; > 10 µM in test [4]; > 30 µM in test [5]; > 10 µM in test [6]; > 10 µM in [7]. For the same molecule, the AC50 in [12] was > 30 µM; in test [8], > 10 µM; in [9], > 30 µM; in test [10], > 30 µM; in test [11], > 30 µM.
Regarding `CN(CCCN1c2ccccc2CCc2ccccc21)CC(=O)c1ccc(Cl)cc1` [LOFEPRAMINE], the concentration at half-maximal activity (AC50) is > 30 µM in [1]; 28 µM in test [3]; > 30 µM in test [4]; > 30 µM in test [5]; > 30 µM in [6]; > 30 µM in [7]. The half-maximal activity concentration (AC50) in [12], in [8], in test [10] and in [11] was > 30 µM each time.
With `CC(=O)O[C@]1(C(C)=O)CC[C@H]2[C@@H]3C[C@H](C)C4=CC(=O)CC[C@]4(C)[C@H]3CC[C@@]21C` [MEDROXYPROGESTERONE ACETATE], the half-maximal activity concentration (AC50) in test [10] and in test [11] was > 30 µM throughout.
`CN(C/C=C/c1ccccc1)Cc1cccc2ccccc12` [NAFTIFINE]: the AC50 in [1] is > 10 µM; in [2], > 30 µM; in [3] it was > 30 µM; in test [4], > 10 µM; in test [5], > 30 µM; in [6], > 10 µM. The half-maximal activity concentration (AC50) was > 10 µM in test [7], > 30 µM in test [12], > 10 µM in test [8] and > 30 µM in [10].
Turning to `CN(C)CCCN1c2ccccc2Sc2ccccc21` [PROMAZINE], the AC50 in test [1] was > 10 µM; in test [3], > 10 µM; in test [4] it was > 10 µM; in [5], > 30 µM; in test [6], > 10 µM; in [7], > 10 µM. Further, the AC50 is > 30 µM in test [12], > 10 µM in test [8], > 30 µM in test [10] and > 10 µM in test [11].
As to `O=P(O)(O)C(O)(Cc1cccnc1)P(=O)(O)O` [RISEDRONIC ACID], the AC50 was > 30 µM in test [1]; > 30 µM in [2]; > 30 µM in test [3]; > 30 µM in test [4]; > 30 µM in [5]; > 10 µM in test [6]. Moreover, the concentration at half-maximal activity (AC50) in test [7], in [12], in test [8], in [10] and in [11] was > 30 µM throughout.
In the case of `O=C1CCC(N2C(=O)c3ccccc3C2=O)C(=O)N1` (centres undefined) [THALIDOMIDE], the concentration at half-maximal activity (AC50) in test [1] is > 10 µM; in test [3], > 30 µM; in [4], > 10 µM; in [5], > 30 µM; in [6], > 10 µM; in [7], > 10 µM. Also, the AC50 is > 30 µM in test [12], > 10 µM in [8], > 30 µM in test [10] and > 10 µM in [11].
For the molecule `CC(=O)N[C@H]1[C@H]([C@H](O)[C@H](O)CO)OC(C(=O)O)=C[C@@H]1N=C(N)N` [ZANAMIVIR], the concentration at half-maximal activity (AC50) in test [1] was > 10 µM; in test [2] it was > 30 µM; in [3], > 30 µM; in test [4], > 10 µM; in test [6], > 30 µM; in test [7], > 10 µM. Also, the AC50 in test [12], in test [8], in test [9], in test [10] and in [11] was > 30 µM each time.
